From PubChem BioAssay (NCI) come the findings set out here.

Structures are written as SMILES.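 Tested at 5 concentrations; 48 h exposure; 96-well plates; endpoints linearly interpolated, else capped at highest concentration. TGI denotes the concentration required for complete inhibition of growth.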

Holding throughout (assay): NCI anticancer screen, dose series, 48 h
In experiment [1] the test system is 786-0 renal.
The subject of experiment [2] is A549 NSCLC.
Experiment [3] has as its system CAKI-1 renal.
Experiment [4] relates to CCRF-CEM leukemia.
The subject of experiment [5] is DU-145 prostate.
Experiment [6] concerns HCC-2998 colon.
Experiment [7] relates to HCT-116 colon.
In experiment [8] the test system is HCT-15 colon.
Experiment [9] deals with HOP-92 NSCLC.
Experiment [10] deals with MALME-3M melanoma.
For experiment [11], the system named is MCF7 breast.
Experiment [12] relates to MDA-N.
The subject of experiment [13] is NCI-H522 lung.
The test system of experiment [14] is OVCAR-4 ovarian.
Experiment [15] deals with RXF 393 renal.
For experiment [16], the system named is SK-MEL-2 melanoma.
The test system of experiment [17] is SK-MEL-5 melanoma.
Experiment [18] has as its system SK-OV-3 ovarian.
Experiment [19] concerns UO-31 renal.

For `CC1=C[C@H]([C@H]2C=C(C)C(C(N)=O)=CN2Cc2c(Cl)cccc2Cl)N(Cc2c(Cl)cccc2Cl)C=C1C(N)=O`, the TGI in [1], in experiment [2], in [3], in [4], in [5] and in experiment [6] was more than 75 µM each time. The TGI in experiment [7] is more than 75 µM; in experiment [8] it was more than 75 µM; in experiment [9], 65.8 µM; in experiment [10], more than 75 µM; in experiment [11] it was more than 75 µM; in [12], more than 75 µM. In addition, the TGI in [13], in experiment [14], in experiment [15], in experiment [16], in experiment [17] and in experiment [18] was more than 75 µM throughout. Also, the TGI in experiment [19] was more than 75 µM.

For the compound `C=CCc1cccc2cc(C(=O)Nc3ccc(C)cc3)c(=N)oc12`, the TGI in [1], in experiment [2], in experiment [3], in [4], in experiment [5] and in experiment [6] was more than 100 µM in each case. The TGI in experiment [7], in experiment [8], in experiment [9], in experiment [10], in experiment [11] and in experiment [12] was more than 100 µM in each case. For the same compound, the TGI in [13], in [14], in experiment [15], in experiment [16], in [17] and in experiment [18] was more than 100 µM throughout.

As to `O=C1NC(=NCc2ccc(F)cc2)N/C1=C\c1ccccc1Cl`, the TGI in experiment [1] is 24 µM; in experiment [2], 41.8 µM; in experiment [3] it was 70.8 µM; in experiment [5], 46.8 µM; in [6], more than 100 µM; in experiment [7], 30.3 µM. Also, the TGI in experiment [8] worked out at 71.2 µM; in [9], 24.9 µM; in experiment [10], 41.8 µM; in [11], 54.8 µM; in [12], 40.3 µM; in experiment [13] it was 30.4 µM. Also, the TGI in [14] came to 74.3 µM; in experiment [15], 48.2 µM; in experiment [16] it was 33.3 µM; in [17], 33.6 µM; in experiment [18] it was 63.2 µM.

`CN(CCNC(=O)c1nn(-c2ccc(Cl)cc2Cl)c2c1Cc1ccccc1-2)CCNC(=O)c1nn(-c2ccc(Cl)cc2Cl)c2c1Cc1ccccc1-2`: the TGI was 4.47 µM in [1]; 28.8 µM in experiment [2]; more than 47.4 µM in experiment [3]; 7.82 µM in experiment [4]; more than 61.9 µM in [5]; 3.26 µM in [6]. Besides, the TGI stood at 4.45 µM in experiment [7]; 5.97 µM in [8]; 4.88 µM in experiment [9]; 3.42 µM in [10]; 8.31 µM in experiment [11]; 4.89 µM in experiment [12]. Also, the TGI in experiment [13] was 3.71 µM; in experiment [14], more than 20 µM; in experiment [15], 4.54 µM; in experiment [16], 4.32 µM; in experiment [17], 3.48 µM; in experiment [18] it was 97.9 µM. Besides, in experiment [19], the TGI is 7.81 µM.

As for `COc1ccc(C(=O)c2nc3ccccc3nc2N2CCN(c3ccccc3)CC2)cc1OC`, the TGI in experiment [1], in experiment [2], in [3], in experiment [4], in [5] and in experiment [6] was more than 100 µM each time. Besides, the TGI in experiment [7], in [8], in experiment [9], in [10], in experiment [11] and in experiment [12] was more than 100 µM each time. The TGI in [13], in experiment [14], in [15], in [16], in experiment [17] and in experiment [18] was more than 100 µM throughout. This compound had a TGI in [19] of more than 100 µM.

Consider `COc1ccc(NC(=O)C(C#N)=C(SC)SC)cc1`, for which the TGI in experiment [1], in [2], in experiment [3], in [4], in experiment [5] and in experiment [6] was more than 100 µM each time. Further, the TGI was more than 100 µM in [7]; more than 100 µM in experiment [8]; 55.6 µM in [9]; more than 100 µM in experiment [10]; more than 100 µM in [11]; more than 100 µM in [12]. Also, the TGI in experiment [13], in [14], in [15], in experiment [16], in experiment [17] and in experiment [18] was more than 100 µM in each case. The compound also showed a TGI in experiment [19] of more than 100 µM.

On to `Cc1cn(C2CC(N=[N+]=[N-])C(CO)O2)c(=O)n(CCCCBr)c1=O` (centres undefined), for which the TGI in experiment [1], in experiment [2], in experiment [3], in experiment [4], in [5] and in [6] was more than 100 µM throughout. For the same compound, the TGI in experiment [7], in [8], in experiment [9], in experiment [10], in experiment [11] and in experiment [12] was more than 100 µM throughout. In addition, the TGI in experiment [13], in experiment [14], in [15], in experiment [16], in experiment [18] and in experiment [19] was more than 100 µM in each case.

Consider `CCO[C@H]1O[C@@H]2OC3(C)CCC4[C@H](C)CCC([C@H]1C)[C@]42OO3` (some centres undefined), for which the TGI in experiment [1], in experiment [2], in experiment [3], in experiment [4], in [5] and in [6] was more than 100 µM each time. Also, the TGI in experiment [7], in [8], in experiment [9], in experiment [10], in experiment [11] and in experiment [12] was more than 100 µM each time. The TGI in experiment [13], in experiment [14], in experiment [15], in experiment [16], in [17] and in experiment [18] was more than 100 µM in each case. In [19], this compound displayed a TGI of more than 100 µM.

`Cc1c(C(=O)Nc2ccccc2)nnn1-c1ccnc2cc(C(F)(F)F)ccc12`: the TGI in [1] is more than 100 µM; in [2], more than 100 µM; in experiment [3] it was more than 100 µM; in experiment [4] it was 81.5 µM; in experiment [5], more than 100 µM; in experiment [6], more than 100 µM. Also, the TGI in [7] was more than 100 µM; in experiment [8] it was more than 100 µM; in experiment [9] it was 95.4 µM; in [10] it was more than 100 µM; in experiment [11], more than 100 µM; in experiment [12] it was more than 100 µM. In addition, the TGI is more than 100 µM in experiment [13]; more than 100 µM in experiment [14]; more than 100 µM in experiment [15]; more than 100 µM in [16]; 52.6 µM in experiment [17]; more than 100 µM in [18]. The TGI in [19] is more than 100 µM.

For the compound `CC(=O)C1C(=O)C(C(C)=O)C2C3C=CC(C3)C12` (centres undefined), the TGI in [1], in [2], in experiment [3], in experiment [4], in [5] and in experiment [6] was more than 100 µM each time. Moreover, the TGI in [7], in experiment [8], in experiment [9], in experiment [10], in experiment [11] and in experiment [12] was more than 100 µM in each case. Further, the TGI in experiment [13], in experiment [14], in [15], in [16], in [17] and in [18] was more than 100 µM each time. In experiment [19], this compound had a TGI of more than 100 µM.

For `COn1oc(=O)c2ccccc21`, the TGI in experiment [1], in experiment [2], in experiment [3], in [4], in experiment [5] and in [6] was more than 100 µM throughout. In addition, the TGI in [7], in experiment [8], in experiment [9], in experiment [10], in experiment [11] and in experiment [12] was more than 100 µM in each case. Besides, the TGI in experiment [13], in experiment [14], in experiment [15], in experiment [16], in [17] and in experiment [18] was more than 100 µM throughout. This compound also came in with a TGI in experiment [19] of more than 100 µM.

Regarding `CC[C@@H]1CSC(/C=C/C2OC3OC(C)(C)OC3C3OC(C)(C)OC23)=N1` (some centres undefined), the TGI turned out to be 15.9 µM in experiment [1]; 49.6 µM in experiment [2]; 28.6 µM in experiment [3]; 5.19 µM in experiment [5]; 12.7 µM in experiment [6]; 14.2 µM in [7]. The TGI in [8] stood at 15.3 µM; in experiment [9], 19.2 µM; in [10], 23.8 µM; in experiment [11], 16.8 µM; in experiment [12] it was 21.3 µM; in experiment [13], 12.1 µM. The TGI in experiment [14] worked out at 17.7 µM; in experiment [15], 9.59 µM; in [16], 29.8 µM; in experiment [17], 20 µM; in experiment [18], 91.4 µM; in experiment [19], 22.8 µM.

For `N#CC1(C#N)[C@@H]2CCC=C(Sc3ccccc3)[C@@H]21`, the TGI came out at 35.5 µM in [1]; 52.8 µM in [2]; 27.2 µM in [3]; 63.1 µM in experiment [4]; 30.4 µM in [5]; 32 µM in experiment [6]. Moreover, the TGI came out at 29.6 µM in experiment [7]; 51.1 µM in experiment [8]; 30.7 µM in experiment [9]; 32 µM in experiment [10]; 23.4 µM in experiment [11]; 34.1 µM in [12]. In addition, the TGI in experiment [13] is 24.5 µM; in [14], 29 µM; in experiment [15], 26.3 µM; in experiment [16], 28.3 µM; in experiment [17] it was 29.4 µM; in experiment [18], 39.6 µM.

On to `c1cc(C2=NCCO2)c2ccsc2c1`, for which the TGI in experiment [1], in experiment [2], in experiment [3], in [4], in experiment [5] and in experiment [6] was more than 100 µM in each case. In addition, the TGI in experiment [7], in experiment [8], in [9], in experiment [10], in experiment [11] and in experiment [12] was more than 100 µM in each case. The TGI in experiment [13], in experiment [14], in experiment [15], in experiment [16], in experiment [17] and in experiment [18] was more than 100 µM throughout. Moreover, the TGI in experiment [19] was more than 100 µM.

As for `CC[C@]1(Cc2ccc(OC)c(OC)c2)C2CC(C(=O)OC)ON2O[C@H](OCc2ccccc2)[C@@H]1OC(C)=O` (some centres undefined), the TGI in [1], in experiment [2], in [3], in [4], in [5] and in experiment [6] was more than 100 µM throughout. The TGI in experiment [7], in experiment [8], in [9], in experiment [10], in experiment [11] and in [12] was more than 100 µM in each case. Besides, the TGI in [13], in experiment [14], in experiment [15], in experiment [16], in [17] and in experiment [18] was more than 100 µM in each case. The compound further yielded a TGI in experiment [19] of more than 100 µM.
